Measurements: ChEMBL document CHEMBL5120914, “An O-Benzyl Phosphonamidate Prodrug of Tenofovir for the Treatment of Hepatitis B Virus Infection” (J Med Chem, 2022)
pEC50: −log10 of the molar value.

Tests used:
[1] = tested on: Hepatitis B virus; assay: Antiviral activity against Hepatitis B virus infected in human HepG2.2.15 cells assessed as inhibition of viral DNA replication at 1 uM measured after 6 days by FQ-PCR analysis relative to control; type: functional, HepG2 2.2.15; parameters: scale not given: the % may be the effect or the level left; conditions: time 6 day
[2] = Cytotoxicity against human HepG2 cells assessed as reduction in cell growth incubated for 3 days by MTT assay; type: toxicity, cell-based; conditions: time 3 day
[3] = tested on: Hepatitis B virus; assay: Antiviral activity against Hepatitis B virus infected in human HepG2.2.15 cells assessed as inhibition of viral DNA replication measured for 9 days by FQ-PCR analysis; type: functional, organism-based; conditions: HepG2 2.2.15, 216 h
[4] = Acute toxicity in overnight fasted Kunming mouse assessed as kidney tissue damage at 1.5 g/Kg, IG measured on day 15; type: tissue-based; conditions: in vivo, po, 1500 mg/kg
[5] = tested on: Hepatitis B virus; assay: Antiviral activity against Hepatitis B virus infected in duck assessed as log reduction in viral DNA replication in serum at 2.5 to 10 mg/kg, IG administered once daily for first 10 days followed by 20 mg/kg, IG administered for another 18 days; type: functional; conditions: dose 2.5-20 mg/kg, time 28 day
[6] = Acute toxicity in overnight fasted Kunming mouse assessed as change in body weight at 1.5 g/Kg, IG measured for 15 days; conditions: in vivo, po, 1500 mg/kg, 360 h, time 15 day
[7] = Metabolic stability in dog plasma assessed as half life measured upto 24 hrs by HPLC analysis; type: ADME, cell-free, Canis lupus familiaris
[8] = tested on: Hepatitis B virus; assay: Antiviral activity against Hepatitis B virus infected in duck assessed as log reduction in viral DNA replication in serum at 2.5 to 10 mg/kg, IG administered once daily for first 10 days followed by 40 mg/kg, IG administered for another 18 days; type: functional; conditions: dose 2.5-40 mg/kg, time 28 day
[9] = Acute toxicity in overnight fasted Kunming mouse assessed as heart tissue damage at 1.5 g/Kg, IG measured on day 15; conditions: in vivo, po, 1500 mg/kg
[10] = Acute toxicity in overnight fasted Kunming mouse assessed as animal survival at 1.5 g/Kg, IG measured for 15 days; conditions: in vivo, po, 1500 mg/kg, 360 h, time 15 day
[11] = Metabolic stability in human plasma assessed as half life measured upto 24 hrs by HPLC analysis; type: ADME, cell-free
[12] = Toxicity in duck assessed as animal survival at 2.5 to 10 mg/kg, IG administered once daily for first 10 days followed by 10 to 40 mg/kg, IG for another 18 days; type: organism-based; conditions: anas platyrhynchos, in vivo, po, 672 h, dose 2.5-40 mg/kg, time 28 day
[13] = Toxicity in duck assessed as liver necrosis at 2.5 to 10 mg/kg, IG administered once daily for first 10 days followed by 10 to 40 mg/kg, IG for another 18 days by hematoxyin-eosin staining based light microscopic analysis; type: organism-based; conditions: anas platyrhynchos, in vivo, po, 672 h, dose 2.5-40 mg/kg, time 28 day
[14] = Metabolic stability in rat plasma assessed as half life measured upto 25 mins by HPLC analysis; type: ADME, cell-free
[15] = Acute toxicity in overnight fasted Kunming mouse assessed as lung tissue damage at 1.5 g/Kg, IG measured on day 15; type: tissue-based; conditions: in vivo, po, 1500 mg/kg
[16] = Toxicity in duck assessed as liver hemorrhage at 2.5 to 10 mg/kg, IG administered once daily for first 10 days followed by 10 to 40 mg/kg, IG for another 18 days by hematoxyin-eosin staining based light microscopic analysis; type: organism-based; conditions: anas platyrhynchos, in vivo, po, 672 h, dose 2.5-40 mg/kg, time 28 day
[17] = Acute toxicity in overnight fasted Kunming mouse assessed as side effects at 1.5 g/Kg, IG measured for 15 days; conditions: in vivo, po, 1500 mg/kg, 360 h, time 15 day
[18] = tested on: Hepatitis B virus; assay: Antiviral activity against Hepatitis B virus infected in duck assessed as log reduction in viral DNA replication in serum at 2.5 to 10 mg/kg, IG administered once daily for first 10 days followed by 10 mg/kg, IG administered for another 18 days; type: functional; conditions: dose 2.5-10 mg/kg, time 28 day
[19] = Drug metabolism in Sprague-Dawley rat liver assessed as AUC(0 to t) of TFV-DP at 20 mg/kg, IG meaured upto 12 hrs by HPLC-MS/MS analysis; type: ADME, organism-based; conditions: in vivo, po
[20] = Toxicity in duck assessed as body weight loss at 2.5 to 10 mg/kg, IG administered once daily for first 10 days followed by 10 to 40 mg/kg, IG for another 18 days; type: organism-based; conditions: anas platyrhynchos, in vivo, po, 672 h, dose 2.5-40 mg/kg, time 28 day
[21] = Acute toxicity in overnight fasted Kunming mouse assessed as liver tissue damage at 1.5 g/Kg, IG measured on day 15; type: tissue-based; conditions: in vivo, po, 1500 mg/kg
[22] = Toxicity in duck assessed as inflammatory response in liver at 2.5 to 10 mg/kg, IG administered once daily for first 10 days followed by 10 to 40 mg/kg, IG for another 18 days by hematoxyin-eosin staining based light microscopic analysis; type: organism-based; conditions: anas platyrhynchos, in vivo, po, 672 h, dose 2.5-40 mg/kg, time 28 day
[23] = Toxicity in duck assessed as body weight gain at 2.5 to 10 mg/kg, IG administered once daily for first 10 days followed by 10 to 40 mg/kg, IG for another 18 days; type: organism-based; conditions: anas platyrhynchos, in vivo, po, 672 h, dose 2.5-40 mg/kg, time 28 day
[24] = Acute toxicity in overnight fasted Kunming mouse assessed as spleen tissue damage at 1.5 g/Kg, IG measured on day 15; type: tissue-based; conditions: in vivo, po, 1500 mg/kg
[25] = tested on: HepG2; assay: Cytotoxicity against human HepG2 cells assessed as reduction in cell growth upto 500 uM incubated for 3 days by MTT assay; type: toxicity, cell-based; conditions: hepg2, 72 h, time 3 day
[26] = tested on: Hepatitis B virus; assay: Antiviral activity against Hepatitis B virus infected in ig dosed duck assessed as reduction in viral DNA replication in liver administered once daily for first 10 days followed by increase in dose administered for another 18 days; type: functional, organism-based; conditions: dose 10-40 mg/kg, time 28.0 day, DDE = dose-dependent effect
[27] = tested on: Hepatitis B virus; assay: Antiviral activity against Hepatitis B virus infected in human HepG2.2.15 cells assessed as inhibition of viral DNA replication at 20 uM measured after 6 days by FQ-PCR analysis relative to control; type: functional, HepG2 2.2.15; parameters: scale not given: the % may be the effect or the level left; conditions: time 6 day

## CC(C)OC(=O)[C@H](C)NP(=O)(CO[C@H](C)Cn1cnc2c(N)ncnc21)OCc1ccccc1F (some centres undefined)
[1]
  Activity: 66.36%
[2]
  CC50 at 72 h: > 500 µM
[3]
  pEC50: 7.54

## CC(C)OC(=O)[C@H](C)NP(=O)(CO[C@H](C)Cn1cnc2c(N)ncnc21)OCc1ccc([N+](=O)[O-])cc1 (some centres undefined)
[1]
  Activity: 22.15%
[2]
  CC50 at 72 h: > 500 µM

## CCCOC(=O)[C@H](C)NP(=O)(CO[C@H](C)Cn1cnc2c(N)ncnc21)OCc1ccccc1C (some centres undefined)
[1]
  Activity: 14.35%
[2]
  CC50 at 72 h: > 500 µM

## CC(C)OC(=O)[C@H](C)NP(=O)(CO[C@H](C)Cn1cnc2c(N)ncnc21)OCc1cccc([N+](=O)[O-])c1 (some centres undefined)
[1]
  Activity: 34.63%
[2]
  CC50 at 72 h: > 500 µM

## CC(C)OC(=O)[C@H](C)NP(=O)(CO[C@H](C)Cn1cnc2c(N)ncnc21)OCc1ccc(C(F)(F)F)cc1 (some centres undefined)
[1]
  Activity: 63.45%
[2]
  CC50 at 72 h: > 500 µM
[3]
  pEC50: 6.83

## Cc1ccccc1COP(=O)(CO[C@H](C)Cn1cnc2c(N)ncnc21)N[C@@H](C)C(=O)OC(C)C (stereo in doubt; 1a) [listing 1 of 2 here]
[4]
  Activity: Non-Toxic
[5]
  Activity: 3.6
[6]
  Activity: Non-Toxic
[7]
  half-life: > 24 h
[8]
  Activity: 2.9
[9]
  Activity: Non-Toxic
[10]
  Activity: Non-Toxic
[11]
  half-life: > 24 h
[1]; 144 h, 1 µM
  Activity: 81.72%
[12]
  Activity: Non-Toxic
[13]
  Activity: Non-Toxic
[14]
  half-life: < 5 min
[15]
  Activity: Non-Toxic
[16]
  Activity: Non-Toxic
[17]
  Activity: Non-Toxic
[18]
  Activity: 3
[19]
  AUCt: 781.6 ng·h/g
[20]
  Activity: Non-Toxic
[2]
  CC50 at 72 h: > 500 µM
[21]
  Activity: Non-Toxic
[22]
  Activity: Non-Toxic
[3]
  pEC50: 7.62
[23]
  Activity: Toxic
[24]
  Activity: Non-Toxic

## Cc1ccccc1COP(=O)(CO[C@H](C)Cn1cnc2c(N)ncnc21)NCC(=O)OC(C)C (some centres undefined)
[2]
  CC50 at 72 h: > 500 µM

## Cc1ccccc1COP(=O)(CO[C@H](C)Cn1cnc2c(N)ncnc21)N[C@@H](C)C(=O)OC1CCCC1 (some centres undefined)
[1]
  Activity: 41.01%
[2]
  CC50 at 72 h: > 500 µM

## CC(C)OC(=O)[C@H](C)NP(=O)(CO[C@H](C)Cn1cnc2c(N)ncnc21)OCc1ccc(Cl)cc1 (some centres undefined)
[1]
  Activity: 67.85%
[2]
  CC50 at 72 h: > 500 µM
[3]
  pEC50: 6.84

## CCCCOC(=O)[C@H](C)NP(=O)(CO[C@H](C)Cn1cnc2c(N)ncnc21)OCc1ccccc1C (some centres undefined)
[1]
  Activity: 22.62%
[2]
  CC50 at 72 h: > 500 µM

## COc1ccccc1COP(=O)(CO[C@H](C)Cn1cnc2c(N)ncnc21)N[C@@H](C)C(=O)OC(C)C (some centres undefined)
[1]
  Activity: 53.33%
[2]
  CC50 at 72 h: > 500 µM

## COc1ccc(COP(=O)(CO[C@H](C)Cn2cnc3c(N)ncnc32)N[C@@H](C)C(=O)OC(C)C)cc1 (some centres undefined)
[1]
  Activity: 41.64%
[2]
  CC50 at 72 h: > 500 µM

## Cc1ccccc1COP(=O)(CO[C@H](C)Cn1cnc2c(N)ncnc21)N[C@@H](C)C(=O)OC(C)C (stereo in doubt; 1a-1)
[25]
  Activity: Non-Toxic
[1]; 144 h, 1 µM
  Activity: 62.5%

## Cc1ccccc1COP(=O)(CO[C@H](C)Cn1cnc2c(N)ncnc21)N[C@@H](C)C(=O)OC(C)C (stereo in doubt; 1a) [listing 2 of 2 here]
[26]
  Activity: Dde

## CC(C)OC(=O)[C@H](C)NP(=O)(CO[C@H](C)Cn1cnc2c(N)ncnc21)OCc1ccccc1C(F)(F)F (some centres undefined)
[1]
  Activity: 46.76%
[2]
  CC50 at 72 h: > 500 µM

## CC(C)OC(=O)[C@H](C)NP(=O)(CO[C@H](C)Cn1cnc2c(N)ncnc21)OCc1cccc(F)c1 (some centres undefined)
[1]
  Activity: 68.11%
[2]
  CC50 at 72 h: > 500 µM
[3]
  pEC50: 7.57

## CC(C)OC(=O)[C@H](C)NP(=O)(CO[C@H](C)Cn1cnc2c(N)ncnc21)OCc1ccccc1Br (some centres undefined)
[1]
  Activity: 80.75%
[2]
  CC50 at 72 h: 490 µM
[3]
  pEC50: 7.28

## Cc1ccccc1COP(=O)(CO[C@H](C)Cn1cnc2c(N)ncnc21)N[C@@H](Cc1ccccc1)C(=O)OC(C)C (some centres undefined)
[1]
  Activity: 63.8%
[2]
  CC50 at 72 h: > 500 µM
[3]
  pEC50: 6.31

## Nc1ccn([C@@H]2CS[C@H](CO)O2)c(=O)n1 [LAMIVUDINE]
[27]
  Activity: 77.32%
[2]
  CC50 at 72 h: > 500 µM
